Test results reported in ChEMBL document CHEMBL1201862, “PubChem BioAssay data set” (2004).
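Cells were grown in 96-well plates and exposed to each compound for 48 hours at five concentrations; endpoints were interpolated linearly between bracketing concentrations, or set to the highest concentration if not reached. GI50 marks 50% less growth.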 The source made the active and inactive calls. Cut-off read from the data, not from the text of the source: active = GI50 up to about 1.1 µM and inactive = higher.

Tests used:
Assay in all cases: NCI tumour cell line growth inhibition, 48 h
[1] = test system: SR
[2] = test system: MCF7
[3] = test system: SW-620
[4] = test system: A549
[5] = test system: NCI-H522
[6] = test system: HCC 2998
[7] = test system: SK-MEL-5
[8] = test system: HOP-62
[9] = test system: HL-60
[10] = test system: SK-OV-3
[11] = test system: SK-MEL-28
[12] = test system: KM12
[13] = test system: 786-0
[14] = test system: HCT-15
[15] = test system: SF-268
[16] = test system: EKVX
[17] = test system: Hs-578T
[18] = test system: UO-31
[19] = test system: TK-10
[20] = test system: CCRF-CEM
[21] = test system: SNB-75
[22] = test system: NCI-H23
[23] = test system: OVCAR-5
[24] = test system: M14
[25] = test system: COLO 205
[26] = test system: HCT-116
[27] = test system: PC-3
[28] = test system: RXF 393
[29] = test system: UACC-62
[30] = test system: NCI/ADR-RES
[31] = test system: SNB-19
[32] = test system: OVCAR-4
[33] = test system: DU-145
[34] = test system: SF-295
[35] = test system: Malme-3M
[36] = test system: OVCAR-8
[37] = test system: BT-549
[38] = test system: CAKI-1
[39] = test system: K562
[40] = test system: MOLT-4
[41] = test system: NCI-H226
[42] = test system: ACHN
[43] = test system: MDA-MB-231
[44] = test system: UACC-257
[45] = test system: SK-MEL-2
[46] = test system: HT-29
[47] = test system: U-251
[48] = test system: SF-539
[49] = test system: MDA-N
[50] = test system: NCI-H460
[51] = test system: IGROV-1
[52] = test system: T47D
[53] = test system: SN12C
[54] = test system: LOX IMVI
[55] = test system: RPMI-8226
[56] = test system: HOP-92
[57] = test system: MDA-MB-435
[58] = test system: OVCAR-3
[59] = test system: A498

CC(=O)C(C)(C)CCC(C)(C)C(C)=O
GI50 [1]: > 100 µM (inactive)
GI50 [2]: > 100 µM (inactive)
GI50 [3]: > 100 µM (inactive)
GI50 [4]: > 100 µM (inactive)
GI50 [5]: > 100 µM (inactive)
GI50 [6]: > 100 µM (inactive)
GI50 [7]: > 100 µM (inactive)
GI50 [8]: > 100 µM (inactive)
GI50 [9]: > 100 µM (inactive)
GI50 [10]: > 100 µM (inactive)
GI50 [11]: > 100 µM (inactive)
GI50 [12]: > 100 µM (inactive)
GI50 [13]: > 100 µM (inactive)
GI50 [14]: > 100 µM
GI50 [15]: > 100 µM (inactive)
GI50 [16]: > 100 µM (inactive)
GI50 [17]: > 100 µM (inactive)
GI50 [18]: > 100 µM (inactive)
GI50 [19]: > 100 µM (inactive)
GI50 [20]: > 100 µM (inactive)
GI50 [21]: > 100 µM (inactive)
GI50 [22]: > 100 µM (inactive)
GI50 [23]: > 100 µM (inactive)
GI50 [24]: > 100 µM (inactive)
GI50 [25]: > 100 µM (inactive)
GI50 [26]: > 100 µM (inactive)
GI50 [27]: > 100 µM (inactive)
GI50 [28]: < 0.01 µM (active)
GI50 [29]: > 100 µM (inactive)
GI50 [30]: > 100 µM (inactive)
GI50 [31]: > 100 µM (inactive)
GI50 [32]: > 100 µM (inactive)
GI50 [33]: > 100 µM (inactive)
GI50 [34]: > 100 µM (inactive)
GI50 [35]: > 100 µM (inactive)
GI50 [36]: > 100 µM (inactive)
GI50 [37]: > 100 µM (inactive)
GI50 [38]: > 100 µM (inactive)
GI50 [39]: > 100 µM (inactive)
GI50 [40]: > 100 µM (inactive)
GI50 [41]: > 100 µM (inactive)
GI50 [42]: > 100 µM (inactive)
GI50 [43]: > 100 µM (inactive)
GI50 [44]: > 100 µM (inactive)
GI50 [45]: > 100 µM (inactive)
GI50 [46]: > 100 µM (inactive)
GI50 [47]: > 100 µM (inactive)
GI50 [48]: > 100 µM (inactive)
GI50 [49]: > 100 µM (inactive)
GI50 [50]: > 100 µM (inactive)
GI50 [51]: > 100 µM (inactive)
GI50 [52]: > 100 µM (inactive)
GI50 [53]: > 100 µM (inactive)
GI50 [54]: > 100 µM (inactive)

O=C(c1ccccc1)N(C(=O)c1ccccc1)c1nc(SCc2ccccc2)ns1
GI50 [1]: 22.2 µM (inactive)
GI50 [2]: 30.5 µM (inactive)
GI50 [3]: 37.2 µM (inactive)
GI50 [4]: 38.5 µM (inactive)
GI50 [5]: 20 µM (inactive)
GI50 [6]: 22.1 µM (inactive)
GI50 [7]: 16.2 µM (inactive)
GI50 [8]: 32.9 µM (inactive)
GI50 [9]: 21.8 µM (inactive)
GI50 [10]: 43.2 µM (inactive)
GI50 [55]: 19.6 µM (inactive)
GI50 [11]: 30.8 µM (inactive)
GI50 [12]: 34 µM (inactive)
GI50 [13]: 26.7 µM (inactive)
GI50 [14]: 23.9 µM
GI50 [56]: 26.7 µM (inactive)
GI50 [15]: 30.8 µM (inactive)
GI50 [16]: 25.7 µM (inactive)
GI50 [17]: 26.1 µM (inactive)
GI50 [18]: 6.11 µM (inactive)
GI50 [19]: 25.9 µM (inactive)
GI50 [20]: 25.6 µM (inactive)
GI50 [21]: 22.6 µM (inactive)
GI50 [22]: 24 µM (inactive)
GI50 [57]: 29.4 µM (inactive)
GI50 [23]: 33.7 µM (inactive)
GI50 [58]: 22.3 µM (inactive)
GI50 [24]: 34.4 µM (inactive)
GI50 [25]: 18.7 µM (inactive)
GI50 [26]: 23.8 µM (inactive)
GI50 [27]: 28.2 µM (inactive)
GI50 [28]: 31.7 µM (inactive)
GI50 [29]: 17.1 µM (inactive)
GI50 [30]: 28.3 µM (inactive)
GI50 [31]: 50.6 µM (inactive)
GI50 [32]: 39.9 µM (inactive)
GI50 [33]: 30.9 µM (inactive)
GI50 [34]: 25.1 µM (inactive)
GI50 [35]: 22.7 µM (inactive)
GI50 [36]: 36.6 µM (inactive)
GI50 [37]: 28.8 µM (inactive)
GI50 [38]: 38.2 µM (inactive)
GI50 [39]: 29.1 µM (inactive)
GI50 [40]: 25.4 µM (inactive)
GI50 [59]: 27.9 µM (inactive)
GI50 [41]: 28.6 µM (inactive)
GI50 [42]: 41.6 µM (inactive)
GI50 [44]: 22.2 µM (inactive)
GI50 [45]: 21.9 µM (inactive)
GI50 [46]: 25.5 µM (inactive)
GI50 [47]: 19.2 µM (inactive)
GI50 [48]: 22.3 µM (inactive)
GI50 [49]: 26.5 µM (inactive)
GI50 [50]: 21.1 µM (inactive)
GI50 [51]: 36.9 µM (inactive)
GI50 [52]: 25 µM (inactive)
GI50 [53]: 25.2 µM (inactive)
GI50 [54]: 28.6 µM (inactive)

O=c1/c(=C/c2ccccn2)sc2nc3cc4c(cc3n12)OCCO4
GI50 [3]: > 100 µM (inactive)
GI50 [4]: > 100 µM (inactive)
GI50 [5]: > 100 µM (inactive)
GI50 [6]: > 100 µM (inactive)
GI50 [7]: > 100 µM (inactive)
GI50 [8]: > 100 µM (inactive)
GI50 [10]: > 100 µM (inactive)
GI50 [55]: > 100 µM (inactive)
GI50 [11]: > 100 µM (inactive)
GI50 [12]: > 100 µM (inactive)
GI50 [13]: > 100 µM (inactive)
GI50 [14]: > 100 µM
GI50 [56]: > 100 µM (inactive)
GI50 [15]: > 100 µM (inactive)
GI50 [17]: > 100 µM (inactive)
GI50 [18]: > 100 µM (inactive)
GI50 [19]: > 100 µM (inactive)
GI50 [20]: > 100 µM (inactive)
GI50 [21]: 91.8 µM (inactive)
GI50 [22]: > 100 µM (inactive)
GI50 [57]: > 100 µM (inactive)
GI50 [23]: > 100 µM (inactive)
GI50 [58]: > 100 µM (inactive)
GI50 [24]: > 100 µM (inactive)
GI50 [25]: > 100 µM (inactive)
GI50 [26]: > 100 µM (inactive)
GI50 [27]: > 100 µM (inactive)
GI50 [28]: > 100 µM (inactive)
GI50 [29]: > 100 µM (inactive)
GI50 [30]: > 100 µM (inactive)
GI50 [31]: > 100 µM (inactive)
GI50 [32]: > 100 µM (inactive)
GI50 [33]: > 100 µM (inactive)
GI50 [34]: > 100 µM (inactive)
GI50 [35]: > 100 µM (inactive)
GI50 [36]: > 100 µM (inactive)
GI50 [37]: > 100 µM (inactive)
GI50 [38]: > 100 µM (inactive)
GI50 [39]: > 100 µM (inactive)
GI50 [40]: > 100 µM (inactive)
GI50 [59]: > 100 µM (inactive)
GI50 [41]: > 100 µM (inactive)
GI50 [42]: > 100 µM (inactive)
GI50 [43]: > 100 µM (inactive)
GI50 [44]: > 100 µM (inactive)
GI50 [45]: > 100 µM (inactive)
GI50 [46]: > 100 µM (inactive)
GI50 [47]: > 100 µM (inactive)
GI50 [49]: > 100 µM (inactive)
GI50 [50]: > 100 µM (inactive)
GI50 [51]: > 100 µM (inactive)
GI50 [52]: > 100 µM (inactive)
GI50 [53]: > 100 µM (inactive)
GI50 [54]: > 100 µM (inactive)
